From patent US20250179083A1, “TRICYCLIC TRIAZOLO COMPOUNDS AS DGK INHIBITORS” (Incyte Corporation, priority 2023, published 2025)

How the values were obtained:
DGKα = biological target: T1, DGKα (Homo sapiens, UniProt P23743); assay: In vitro DGKα inhibition assay (ADP-Glo); type: biochemical; details: His-tagged human recombinant DGKα 0.1 nM, 50 μM ATP, 20 μM DLG, 90 minute incubation
T1 construct: His; purchased Signal Chem D21-10BH
Method in brief: (§1)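 His-tagged human DGKα (0.1 nM, 50 μM ATP) or DGKζ (0.4 nM, 30 μM ATP), each with 20 μM DLG lipid substrate, in Tris pH 7.5 buffer with Mg2+, Ca2+, CHAPS.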

DGKζ = biological target: T2, DGKζ (Homo sapiens, UniProt Q13574); assay: In vitro DGKζ inhibition assay (ADP-Glo); type: biochemical; details: His-tagged human recombinant DGKζ 0.4 nM, 30 μM ATP, 20 μM DLG, 90 minute incubation
T2 construct: His; purchased Signal Chem D30-10H
T2 sequence (Q13574 whole entry): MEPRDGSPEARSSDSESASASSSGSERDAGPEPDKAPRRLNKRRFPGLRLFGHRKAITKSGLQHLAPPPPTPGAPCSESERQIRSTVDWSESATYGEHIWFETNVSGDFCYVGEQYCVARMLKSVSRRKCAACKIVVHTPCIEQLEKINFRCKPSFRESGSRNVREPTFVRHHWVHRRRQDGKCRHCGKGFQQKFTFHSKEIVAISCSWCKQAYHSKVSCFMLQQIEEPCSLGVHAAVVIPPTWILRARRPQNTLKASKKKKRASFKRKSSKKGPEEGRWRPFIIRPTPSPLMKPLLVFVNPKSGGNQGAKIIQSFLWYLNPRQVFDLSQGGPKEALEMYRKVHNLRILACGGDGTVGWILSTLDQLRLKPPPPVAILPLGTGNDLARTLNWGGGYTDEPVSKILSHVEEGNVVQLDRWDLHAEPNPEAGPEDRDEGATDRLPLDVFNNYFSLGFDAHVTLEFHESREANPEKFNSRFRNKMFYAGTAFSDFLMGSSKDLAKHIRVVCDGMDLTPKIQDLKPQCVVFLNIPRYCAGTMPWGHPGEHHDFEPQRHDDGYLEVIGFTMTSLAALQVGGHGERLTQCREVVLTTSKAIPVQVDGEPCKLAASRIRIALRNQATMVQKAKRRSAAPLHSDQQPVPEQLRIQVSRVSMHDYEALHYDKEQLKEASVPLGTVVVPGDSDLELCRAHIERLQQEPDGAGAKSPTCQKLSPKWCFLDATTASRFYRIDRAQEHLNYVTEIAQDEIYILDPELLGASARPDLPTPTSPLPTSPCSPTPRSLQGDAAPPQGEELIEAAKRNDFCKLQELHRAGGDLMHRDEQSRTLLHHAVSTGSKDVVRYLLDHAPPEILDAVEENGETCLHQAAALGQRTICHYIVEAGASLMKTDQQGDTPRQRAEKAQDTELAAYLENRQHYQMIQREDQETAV
Method in brief: as §1

T1 sequence (P23743 whole entry): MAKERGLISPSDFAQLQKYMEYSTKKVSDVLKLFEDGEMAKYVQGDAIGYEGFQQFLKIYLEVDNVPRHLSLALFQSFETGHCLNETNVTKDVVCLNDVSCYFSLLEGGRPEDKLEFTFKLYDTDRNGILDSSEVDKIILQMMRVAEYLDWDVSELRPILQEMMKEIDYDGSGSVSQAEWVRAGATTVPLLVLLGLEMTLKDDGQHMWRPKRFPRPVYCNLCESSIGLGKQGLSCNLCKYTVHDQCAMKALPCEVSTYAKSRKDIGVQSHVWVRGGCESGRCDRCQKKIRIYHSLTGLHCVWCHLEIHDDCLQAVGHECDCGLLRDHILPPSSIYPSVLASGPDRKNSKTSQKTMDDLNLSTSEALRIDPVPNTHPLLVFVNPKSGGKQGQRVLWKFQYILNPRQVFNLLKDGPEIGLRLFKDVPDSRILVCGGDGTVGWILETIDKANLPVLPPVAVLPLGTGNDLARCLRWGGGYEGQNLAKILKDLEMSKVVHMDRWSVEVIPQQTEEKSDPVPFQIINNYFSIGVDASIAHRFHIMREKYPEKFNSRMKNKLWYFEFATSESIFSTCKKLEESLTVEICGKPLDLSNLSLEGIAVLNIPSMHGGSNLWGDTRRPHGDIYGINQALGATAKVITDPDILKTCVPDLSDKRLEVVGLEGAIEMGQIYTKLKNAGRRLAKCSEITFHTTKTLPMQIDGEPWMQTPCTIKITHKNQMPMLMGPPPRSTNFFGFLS

Structure (SMILES) | IC50 (DGKα) [nM] | IC50 (DGKζ) [nM]
CC[C@H](c1ccc(C(F)(F)F)cc1)N1C[C@H](C)N(c2nc3nncn3c3c2ncn3C[C@@H]2CCCO2)C[C@H]1C [Example 60, 4-((2S,5R)-2,5-dimethyl-4-((R)-1-(4-(trifluoromethyl)phenyl)propyl)piperazin-1-yl)-1-(((S)-tetrahydrofuran-2-yl)methyl)-1H-[1,2,4]triazolo[3,4-b]purine] | < 20 | < 20
C[C@@H]1CN(c2cc3nncn3c3c2ncn3C[C@@H]2CCCO2)[C@@H](C)CN1C(c1ccc(Cl)cc1)[C@@H]1CC1(F)F (single isomer, unassigned) [Example 50] | < 20 | 20 to 200
CC[C@@H]1CN(c2nc3nncn3c3c2ncn3C[C@@H]2CCCO2)[C@@H](C)CN1C(c1ccc(Cl)cc1)C1CC(F)(F)C1 (stereo partly drawn) [Example 34, 4-((2S,5R)-4-((4-Chlorophenyl)(3,3-difluorocyclobutyl)methyl)-5-ethyl-2-methylpiperazin-1-yl)-1-(((S)-tetrahydrofuran-2-yl)methyl)-1H-[1,2,4]triazolo[3,4-b]purine] | < 20 | < 20
COc1ccc(C(C(C)C)N2C[C@H](C)N(c3nc4nncn4c4c3nc(C)n4C[C@@H]3CCCO3)C[C@H]2C)cc1F (stereo partly drawn) [Example 24, 4-((2S,5R)-4-(1-(3-fluoro-4-methoxyphenyl)-2-methylpropyl)-2,5-dimethylpiperazin-1-yl)-2-methyl-1-(((S)-tetrahydrofuran-2-yl)methyl)-1H-[1,2,4]triazolo[3,4-b]purine] | < 20 | < 20
C[C@@H]1CN(c2nc3nncn3c3c2ncn3C[C@@H]2CCCO2)[C@@H](C)CN1C(c1ccc(Br)cc1)C1CC(F)(F)C1 (stereo partly drawn) [Example 33, 4-((2S,5R)-4-((4-Bromophenyl)(3,3-difluorocyclobutyl)methyl)-2,5-dimethylpiperazin-1-yl)-1-(((S)-tetrahydrofuran-2-yl)methyl)-1H-[1,2,4]triazolo[3,4-b]purine] | < 20 | < 20
CC[C@@H]1CN(c2nc3nncn3c3c2nc(C)n3C[C@@H]2CCCO2)[C@@H](C)CN1Cc1ccc(C(F)(F)F)cc1 [Example 36, 4-((2S,5R)-5-Ethyl-2-methyl-4-(4-(trifluoromethyl)benzyl)piperazin-1-yl)-2-methyl-1-(((S)-tetrahydrofuran-2-yl)methyl)-1H-[1,2,4]triazolo[3,4-b]purine] | < 20 | < 20
CC[C@@H]1CN(c2nc3nncn3c3c2nc(C)n3C[C@@H]2CCCO2)[C@@H](C)CN1[C@H](C)c1ccc(C(F)(F)F)cc1 [Example 42, 4-((2S,5R)-5-ethyl-2-methyl-4-((R)-1-(4-(trifluoromethyl)phenyl)ethyl)piperazin-1-yl)-2-methyl-1-(((S)-tetrahydrofuran-2-yl)methyl)-1H-[1,2,4]triazolo[3,4-b]purine] | < 20 | < 20
Cc1nc2c(N3C[C@@H](C)N(Cc4ccc(C(F)(F)F)cc4F)C[C@@H]3C)nc3nncn3c2n1C[C@@H]1CCCO1 [Example 37, 4-((2S,5R)-4-(2-Fluoro-4-(trifluoromethyl)benzyl)-2,5-dimethylpiperazin-1-yl)-2-methyl-1-(((S)-tetrahydrofuran-2-yl)methyl)-1H-[1,2,4]triazolo[3,4-b]purine] | < 20 | < 20
CC(c1ccc(Cl)c(F)c1)N1C[C@H](C)N(c2nc3nncn3c3c2ncn3C[C@@H]2CCCO2)C[C@H]1C (stereo partly drawn) [Example 88, 4-((2S,5R)-4-(1-(4-Chloro-3-fluorophenyl)ethyl)-2,5-dimethylpiperazin-1-yl)-1-(((S)-tetrahydrofuran-2-yl)methyl)-1H-[1,2,4]triazolo[3,4-b]purine] | 20 to 200 | < 20
Cc1nc2c(N3C[C@@H](C)N([C@@H](c4ccc(Br)cc4F)C(C)C)C[C@@H]3C)nc3nncn3c2n1C[C@@H]1CCCO1 [Example 27, 4-((2S,5R)-4-((R)-1-(4-bromo-2-fluorophenyl)-2-methylpropyl)-2,5-dimethylpiperazin-1-yl)-2-methyl-1-(((S)-tetrahydrofuran-2-yl)methyl)-1H-[1,2,4]triazolo[3,4-b]purine] | < 20 | < 20
Cc1nc2c(N3C[C@@H](C)N(Cc4cc(F)c(Cl)c(C(F)(F)F)c4)C[C@@H]3C)nc3nncn3c2n1C[C@@H]1CCCO1 [Example 74, 4-((2S,5R)-4-(4-Chloro-3-fluoro-5-(trifluoromethyl)benzyl)-2,5-dimethylpiperazin-1-y1)-2-methyl-1-(((S)-tetrahydrofuran-2-yl)methyl)-1H-[1,2,4]triazolo[3,4-b]purine] | < 20 | < 20
CC(C)CC(c1ccc(Cl)cc1)N1C[C@H](C)N(c2cc3nncn3c3c2ncn3C[C@@H]2CCCO2)C[C@H]1C (single isomer, unassigned) [Example 51] | < 20 | < 20
C[C@@H]1CN(c2nc3nncn3c3c2ncn3C[C@@H]2CCCO2)[C@@H](C)CN1Cc1ccc(Cl)c(F)c1 [Example 77, 4-((2S,5R)-4-(4-Chloro-3-fluorobenzyl)-2,5-dimethylpiperazin-1-yl)-1-(((S)-tetrahydrofuran-2-yl)methyl)-1H-[1,2,4]triazolo[3,4-b]purine] | < 20 | < 20
Cc1nc2c(N3C[C@@H](C)N(Cc4ccc(C(F)(F)F)c(F)c4)C[C@@H]3C)nc3nncn3c2n1C[C@@H]1CCCO1 [Example 75, 4-((2S,5R)-4-(3-Fluoro-4-(trifluoromethyl)benzyl)-2,5-dimethylpiperazin-1-yl)-2-methyl-1-(((S)-tetrahydrofuran-2-yl)methyl)-1H-[1,2,4]triazolo[3,4-b]purine] | < 20 | < 20
Cc1nc2c(N3C[C@@H](C)N(Cc4ccc(C(F)(F)F)cc4F)C[C@@H]3C)cc3nncn3c2n1C[C@@H]1CCCO1 [Example 69, 4-((2S,5R)-4-(2-Fluoro-4-(trifluoromethyl)benzyl)-2,5-dimethylpiperazin-1-yl)-2-methyl-1-(((S)-tetrahydrofuran-2-yl)methyl)-1H-imidazo[4,5-e][1,2,4]triazolo[4,3-a]pyridine] | < 20 | < 20
CC[C@H](c1ccc(Cl)cc1)N1C[C@H](C)N(c2nc3nncn3c3c2nc(C)n3C[C@@H]2CCCO2)C[C@H]1C [Example 86, 4-((2S,5R)-4-((R)-1-(4-chlorophenyl)propyl)-2,5-dimethylpiperazin-1-yl)-2-methyl-1-(((S)-tetrahydrofuran-2-yl)methyl)-1H-[1,2,4]triazolo[3,4-b]purine] | < 20 | < 20
Cc1nc2c(N3C[C@@H](C)N(Cc4ccc(Cl)cc4F)C[C@@H]3C)nc3nncn3c2n1C[C@@H]1CCCO1 [Example 71, 4-((2S,5R)-4-(4-Chloro-2-fluorobenzyl)-2,5-dimethylpiperazin-1-yl)-2-methyl-1-(((S)-tetrahydrofuran-2-yl)methyl)-1H-[1,2,4]triazolo[3,4-b]purine] | < 20 | < 20
Cc1nc2c(N3C[C@@H](C)N(C(C)c4ccc(C(F)(F)F)cc4)C[C@@H]3C)nc3nncn3c2n1C[C@@H]1CCCO1 (stereo partly drawn) [Example 67, 4-((2S,5R)-2,5-Dimethyl-4-(1-(4-(trifluoromethyl)phenyl)ethyl)piperazin-1-yl)-2-methyl-1-(((S)-tetrahydrofuran-2-yl)methyl)-1H-[1,2,4]triazolo[3,4-b]purine] | < 20 | < 20
CC[C@@H]1CN(c2cc3nncn3c3c2nc(C)n3C[C@@H]2CCCO2)[C@@H](C)CN1C(c1ccc(Cl)cc1)C1CC(F)(F)C1 (single isomer, unassigned) [Example 52] | < 20 | < 20
Cc1nc2c(N3C[C@@H](C)N(C(c4ccc(C(F)F)cc4F)C4CC(F)(F)C4)C[C@@H]3C)nc3nncn3c2n1C[C@@H]1CCCO1 (stereo partly drawn) [Example 3, 4-((2S,5R)-4-((3,3-Difluorocyclobutyl)(4-(difluoromethyl)-2-fluorophenyl)methyl)-2,5-dimethylpiperazin-1-yl)-2-methyl-1-(((S)-tetrahydrofuran-2-yl)methyl)-1H-[1,2,4]triazolo[3,4-b]purine] | < 20 | < 20
C[C@@H]1CN(c2cc3nncn3c3c2ncn3C[C@@H]2CCCO2)[C@@H](C)CN1C(c1ccc(F)cc1)c1ccc(F)cc1 [Example 43, 4-((2S,5R)-4-(Bis(4-fluorophenyl)methyl)-2,5-dimethylpiperazin-1-yl)-1-(((S)-tetrahydrofuran-2-yl)methyl)-1H-imidazo[4,5-e][1,2,4]triazolo[4,3-a]pyridine] | < 20 | < 20
Cc1nc2c(N3C[C@@H](C)N(C(c4ccc(C(F)(F)F)cc4F)C4CC(F)(F)C4)C[C@@H]3C)nc3nncn3c2n1C[C@@H]1CCCO1 (stereo partly drawn) [Example 4, 4-((2S,5R)-4-((3,3-Difluorocyclobutyl)(2-fluoro-4-(trifluoromethyl)phenyl)methyl)-2,5-dimethylpiperazin-1-yl)-2-methyl-1-(((S)-tetrahydrofuran-2-yl)methyl)-1H-[1,2,4]triazolo[3,4-b]purine] | < 20 | < 20
C[C@@H]1CN(c2nc3nncn3c3c2ncn3C[C@@H]2CCCO2)[C@@H](C)CN1Cc1ccc(C(F)(F)F)cc1F [Example 38, 4-((2S,5R)-4-(2-Fluoro-4-(trifluoromethyl)benzyl)-2,5-dimethylpiperazin-1-yl)-1-(((S)-tetrahydrofuran-2-yl)methyl)-1H-[1,2,4]triazolo[3,4-b]purine] | < 20 | < 20
C[C@@H]1CN(c2nc3nncn3c3c2ncn3C[C@@H]2CCCO2)[C@@H](C)CN1C(c1ccc(C(F)(F)F)cn1)c1ccc(C(F)(F)F)cn1 [Example 19, 4-((2S,5R)-4-(Bis(5-(trifluoromethyl)pyridin-2-yl)methyl)-2,5-dimethylpiperazin-1-yl)-1-(((S)-tetrahydrofuran-2-yl)methyl)-1H-[1,2,4]triazolo[3,4-b]purine] | < 20 | < 20
